Consider eight compounds from ChEMBL document CHEMBL5233244, “Therapeutic potential of targeting α/β-Hydrolase domain-containing 6 (ABHD6)” (Eur J Med Chem, 2020).

The structures appear in SMILES notation.

Assay [1] has as its target T1, Monoacylglycerol lipase ABHD6 (Homo sapiens, UniProt Q9BV23).
T1 sequence (Q9BV23 whole entry): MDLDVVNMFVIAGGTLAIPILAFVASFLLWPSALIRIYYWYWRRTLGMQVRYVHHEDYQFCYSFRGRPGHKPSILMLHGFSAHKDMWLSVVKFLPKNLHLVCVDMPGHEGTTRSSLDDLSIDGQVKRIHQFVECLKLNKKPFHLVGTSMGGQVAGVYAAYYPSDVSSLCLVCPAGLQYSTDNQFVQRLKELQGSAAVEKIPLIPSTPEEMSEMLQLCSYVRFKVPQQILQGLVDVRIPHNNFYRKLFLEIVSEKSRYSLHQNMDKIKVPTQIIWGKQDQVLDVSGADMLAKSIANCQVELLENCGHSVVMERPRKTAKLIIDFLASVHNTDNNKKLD
Nature of the assay: Inhibition of ABHD6 (unknown origin).

Assay [2] deals with T1, Monoacylglycerol lipase ABHD6. Nature of the assay: Inhibition of human recombinant ABHD6.
For assay [3], the target named is T2, Monoacylglycerol lipase ABHD6 (Mus musculus, UniProt Q8R2Y0).
T2 sequence (Q8R2Y0 whole entry): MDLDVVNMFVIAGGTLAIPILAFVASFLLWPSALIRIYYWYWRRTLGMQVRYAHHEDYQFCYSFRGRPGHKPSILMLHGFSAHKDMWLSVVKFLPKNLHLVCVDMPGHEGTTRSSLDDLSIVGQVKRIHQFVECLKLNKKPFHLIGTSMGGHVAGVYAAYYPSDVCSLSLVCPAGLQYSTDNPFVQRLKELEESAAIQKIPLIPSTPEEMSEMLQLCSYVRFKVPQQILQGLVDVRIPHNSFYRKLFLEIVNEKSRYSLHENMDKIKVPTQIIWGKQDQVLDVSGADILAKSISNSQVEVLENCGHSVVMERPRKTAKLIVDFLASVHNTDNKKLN
The assay can be described thus: Inhibition of ABHD6 in mouse brain membrane using HT-01 probe as substrate incubated for 30 mins by gel based competitive ABPP assay. It is filed as cell membranes.

Assay [4] addresses T3, Monoacylglycerol lipase ABHD6 (Mus musculus) (UniProt Q8R2Y0).
T3 sequence (whole entry): T2 sequence (Q8R2Y0 whole entry)
The assay can be described thus: Inhibition of ABHD6 in mouse brain membrane using FP-biotin as substrate at 10 uM incubated for 1 hr by LC-MS based ABPP-MudPIT analysis. It is filed as cell membranes.

The target in assay [5] is T2, Monoacylglycerol lipase ABHD6. Nature of the assay: Inhibition of mouse ABHD6 expressed in COS-7 cells using 2-[3H]AG as substrate incubated for 30 mins by liquid scintillation analysis. It is filed as cell-based.
Assay [6] concerns the target T4, Fatty-acid amide hydrolase 1 (Mus musculus, UniProt O08914).
T4 sequence (O08914 whole entry): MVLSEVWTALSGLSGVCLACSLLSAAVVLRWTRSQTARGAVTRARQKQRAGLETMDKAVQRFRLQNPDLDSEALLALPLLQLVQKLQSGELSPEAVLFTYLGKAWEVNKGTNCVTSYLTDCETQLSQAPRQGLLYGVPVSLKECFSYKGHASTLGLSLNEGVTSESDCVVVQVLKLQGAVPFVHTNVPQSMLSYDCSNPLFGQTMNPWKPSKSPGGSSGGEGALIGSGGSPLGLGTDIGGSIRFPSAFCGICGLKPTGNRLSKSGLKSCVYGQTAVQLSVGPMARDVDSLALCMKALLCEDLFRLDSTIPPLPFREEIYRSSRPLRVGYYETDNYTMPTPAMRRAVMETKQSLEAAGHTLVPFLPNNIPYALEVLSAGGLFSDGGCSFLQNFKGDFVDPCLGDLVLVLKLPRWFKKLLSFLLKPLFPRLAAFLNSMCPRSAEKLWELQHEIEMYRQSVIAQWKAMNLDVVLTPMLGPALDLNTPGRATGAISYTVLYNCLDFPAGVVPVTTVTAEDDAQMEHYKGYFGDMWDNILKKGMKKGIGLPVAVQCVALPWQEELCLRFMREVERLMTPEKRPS
Nature of the assay: Inhibition of mouse FAAH expressed in COS-7 cells using [3H]AEA as substrate incubated for 30 mins by liquid scintillation analysis. Type of assay: cell-based.

The target in assay [7] is T3, Monoacylglycerol lipase ABHD6 (Mus musculus). Nature of the assay: Inhibition of ABHD6 in mouse Primary neuron cells using 2-[3H]AG as substrate at 30 uM incubated for 30 mins by liquid scintillation analysis. Type of assay: cell-based.
The target in assay [8] is T5, Fatty-acid amide hydrolase 1 (Mus musculus) (UniProt O08914).
T5 sequence (whole entry): T4 sequence (O08914 whole entry)
The assay can be described thus: Inhibition of FAAH in mouse Primary neuron cells using [3H]AEA as substrate at 30 uM incubated for 30 mins by liquid scintillation analysis. Type of assay: cell-based.

In assay [9] the target is T6, Monoglyceride lipase (Mus musculus, UniProt O35678).
T6 sequence (O35678 whole entry): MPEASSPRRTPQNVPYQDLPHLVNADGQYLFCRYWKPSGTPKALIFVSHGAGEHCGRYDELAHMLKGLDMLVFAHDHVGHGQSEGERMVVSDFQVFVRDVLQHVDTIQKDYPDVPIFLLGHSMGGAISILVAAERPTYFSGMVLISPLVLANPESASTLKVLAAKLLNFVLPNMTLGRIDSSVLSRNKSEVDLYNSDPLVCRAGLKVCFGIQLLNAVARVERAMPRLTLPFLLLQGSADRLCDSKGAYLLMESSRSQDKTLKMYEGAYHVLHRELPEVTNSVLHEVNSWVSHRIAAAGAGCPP
The assay can be described thus: Inhibition of mouse MAGL expressed in COS-7 cells using 2-[3H]AG as substrate incubated for 30 mins by liquid scintillation analysis. Type of assay: cell-based.

Assay [10] deals with T2, Monoacylglycerol lipase ABHD6. Nature of the assay: Inhibition of ABHD6 in mouse brain membrane using FP-biotin as substrate incubated for 1 hr by LC-MS based ABPP-MudPIT analysis. It is filed as cell membranes.

The IC50 is the concentration needed to halve the response being measured. As usually defined, the inhibition is the change of the read-out against control, counted positive when it falls. A high value points to strong suppression.

Consider `COC(=O)[C@]1(C)CC[C@]2(C)CC[C@]3(C)C4=CC=C5C(=CC(=O)C(O)=C5C)[C@]4(C)CC[C@@]3(C)[C@@H]2C1` [PRISTIMERIN], for which the IC50 in assay [1] came to 1300 nM.

Take `CC(C)(C)OC(=O)N1CCN(C(=O)n2cc(-c3ccc(OC(F)(F)F)cc3)nn2)C(Cc2ccccc2)C1` (stereo not given): the IC50 stood at 3.6 nM in assay [2] and 79 nM in [3].

The compound `CC(C)(C)OC(=O)N1CCN(C(=O)n2cc(-c3ccc(OC(F)(F)F)cc3)nn2)C(c2ccccc2)C1` (stereo not given) registered an IC50 in [3] of 20 nM.

Regarding `CN(Cc1cccc(-c2ccncc2)c1)C(=O)Oc1ccc(-c2ccc(C(N)=O)cc2)cc1`, in assay [4], the inhibition was found to be 90%.

For `CCCCCC/C=C\CCCCCCCC(=O)OCC1CO1` (stereo not given), the values for the half-inhibitory concentration (IC50) in assay [5] and in [6] were 2400 nM and 4000 nM, respectively. Moreover, the inhibition in [7] turned out to be 30%; in assay [8], 60%.

As to `C#CCO[C@@H]1CC[C@H](Cc2ccccc2)N(C(=O)n2ncc(C(O)(c3ccc(F)cc3)c3ccc(F)cc3)n2)C1`, the IC50 in assay [2] stood at 2.8 nM; in [3], 126 nM.

Regarding `CC/C=C\C/C=C\C/C=C\CCCCCCCC(=O)OCC1CO1` (stereo not given), the 50% inhibitory concentration (IC50) in assay [5] was determined as 800 nM; in [9] it was 270 µM; in assay [6], 900 nM.

`CN(Cc1cccc(-c2ccccc2)c1)C(=O)Oc1ccc(-c2ccc(C(N)=O)cc2)cc1` registered an IC50 in assay [10] of 430 nM.
